Results reported in patent US6541638B2, “Pyrrolidine derivatives” (Hoffman-La Roche Inc., priority 2000, dated 2003).

melting point: 173.5 °C (dec.)
SMILES: O=C([C@@H]1C[C@@H](S)CN1S(=O)(=O)c1ccc2ccccc2c1)N(CCc1nnn[nH]1)C1CC1
